From US20030104507A1, “Method for detection of ATP” (priority 2001, published 2003)

Legend:
LucPpe2m146 = assay: Stability of reagent composition with LucPpe2m146 and detergent (RT, pH 7.0); type: biochemical, Photuris pennsylvanica
Summary of the method: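 Reagent with 50 μg/ml luciferase, luciferin, MgSO4, buffer and detergent at varying concentrations held at about 23° C; enzyme added just before first read. At timepoints, aliquots mixed 1:1 with media containing ATP and luminescence read immediately (0.5 s/well, triplicate); reaction half-lives and percent of original luminescence derived.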

[1] = biological target: native firefly luciferase (Photinus pyralis, UniProt P08659); conditions: cited from earlier work
[2] = system: endogenous ATPase of L929 cell lysate; assay: ATPase inhibition at 22° C. and 37° C. by buffered detergent solution with 1% DTAB; type: biochemical; conditions: up to five hours
Protocol: Cell lysate was prepared as described in Example 1. The ability of 1% DTAB to inhibit endogenous ATPase (i.e., ATPase present in a sample) was measured in a complete reagent composition over time at both 22° C. (room temperature) and 37° C. Three cell lysate samples were prepared. Sample 1 contained 4.0 ml L929 cell lysate plus 4.0 ml 25 mM Hepes, pH 7.5. Sample 2 contained 4.0 ml L929 cell lysate plus 4.0 ml buffered detergent solution (40 mM Citrate (pH 6.0), 110 mM MES (pH 6.0), 450 mM KPO4 (pH 6.0), 2.0 mM EDTA, 0.2% Mazu DF-204 (PPG Industries), 2.0 mM NaF, 1.0% DTAB and 2% THESIT—final pH of the buffered detergent solution adjusted to 6.0). Sample 3 contained 4.0 ml DMEM/F12 media (no serum) containing 0.1 μM ATP plus 4.0 ml 25 mM Hepes (pH 7.5). The samples were divided in half; half was incubated at 22° C., half was incubated at 37° C. After 10 minutes of incubation in their respective water baths to allow the solution at 37° C. to reach that temperature (this point is referred to as time=10 min.), 100 μl of each sample was transferred independently to a well of a 96-well luminometer plate in quadruplicate. To each 100 μl sample was added 20 μl of a solution containing luciferin (12.5 mM)/luciferase (200 μg/ml LucPpe2m146)/MgSO4 (50 mM) solution. The resulting relative light units were measured on a Dynex luminometer using 0.5 second reads. […]

native firefly luciferase, sequence (P08659 whole entry): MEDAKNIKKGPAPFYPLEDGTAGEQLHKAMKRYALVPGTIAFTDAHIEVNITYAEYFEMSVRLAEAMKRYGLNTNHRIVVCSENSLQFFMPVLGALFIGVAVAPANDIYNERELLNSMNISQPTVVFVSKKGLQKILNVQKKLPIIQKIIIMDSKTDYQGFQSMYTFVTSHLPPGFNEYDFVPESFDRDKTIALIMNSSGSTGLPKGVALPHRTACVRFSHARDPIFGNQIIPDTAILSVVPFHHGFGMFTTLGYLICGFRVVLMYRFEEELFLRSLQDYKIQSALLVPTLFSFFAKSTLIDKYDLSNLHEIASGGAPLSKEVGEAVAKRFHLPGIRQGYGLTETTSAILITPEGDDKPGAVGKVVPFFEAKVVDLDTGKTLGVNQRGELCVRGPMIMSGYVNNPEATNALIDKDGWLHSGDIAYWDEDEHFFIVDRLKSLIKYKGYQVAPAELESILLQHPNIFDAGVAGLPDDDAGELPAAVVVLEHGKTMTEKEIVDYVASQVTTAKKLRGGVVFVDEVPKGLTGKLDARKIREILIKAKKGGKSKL

SMILES: CCCCCCCCCCCC[N+](C)(C)C.[Br-] [DTAB, dodecyltrimethylammonium bromide]
- Average Relative Light Units (LucPpe2m146; LucPpe2m146, 0.02%, 1.0 min (head r67)): 28730.17 rlu
- Percent of Luminescence Remaining (LucPpe2m146; LucPpe2m146, 0.02%, 1.0 min (times of Table I r67)): 100.00%
- Average Relative Light Units (LucPpe2m146; LucPpe2m146, 0.02%, 34 min (head r67)): 28596.30 rlu
- Percent of Luminescence Remaining (LucPpe2m146; LucPpe2m146, 0.02%, 34 min (times of Table I r67)): 99.53%
- Average Relative Light Units (LucPpe2m146; LucPpe2m146, 0.02%, 65 min (head r67)): 28651.97 rlu
- Percent of Luminescence Remaining (LucPpe2m146; LucPpe2m146, 0.02%, 65 min (times of Table I r67)): 99.73%
- Average Relative Light Units (LucPpe2m146; LucPpe2m146, 0.02%, 115 min (head r67)): 26062.30 rlu
- Percent of Luminescence Remaining (LucPpe2m146; LucPpe2m146, 0.02%, 115 min (times of Table I r67)): 90.71%
- Average Relative Light Units (LucPpe2m146; LucPpe2m146, 0.02%, 175 min (head r67)): 27941.73 rlu
- Percent of Luminescence Remaining (LucPpe2m146; LucPpe2m146, 0.02%, 175 min (times of Table I r67)): 97.26%
- Average Relative Light Units (LucPpe2m146; LucPpe2m146, 0.02%, 238 min (head r67)): 27677.9 rlu
- Percent of Luminescence Remaining (LucPpe2m146; LucPpe2m146, 0.02%, 238 min (times of Table I r67)): 96.34%
- Average Relative Light Units (LucPpe2m146; LucPpe2m146, 0.02%, 286 min (head r67)): 27808.3 rlu
- Percent of Luminescence Remaining (LucPpe2m146; LucPpe2m146, 0.02%, 286 min (times of Table I r67)): 96.79%
- Average Relative Light Units (LucPpe2m146; LucPpe2m146, 0.1%, 1.0 min (head r54)): 20132.47 rlu
- Percent of Luminescence Remaining (LucPpe2m146; LucPpe2m146, 0.1%, 1.0 min (times of Table I r54)): 100.00%
- Average Relative Light Units (LucPpe2m146; LucPpe2m146, 0.1%, 34 min (head r54)): 20574.63 rlu
- Percent of Luminescence Remaining (LucPpe2m146; LucPpe2m146, 0.1%, 34 min (times of Table I r54)): 102.20%
- Average Relative Light Units (LucPpe2m146; LucPpe2m146, 0.1%, 65 min (head r54)): 20800.80 rlu
- Percent of Luminescence Remaining (LucPpe2m146; LucPpe2m146, 0.1%, 65 min (times of Table I r54)): 103.32%
- Average Relative Light Units (LucPpe2m146; LucPpe2m146, 0.1%, 115 min (head r54)): 19908.30 rlu
- Percent of Luminescence Remaining (LucPpe2m146; LucPpe2m146, 0.1%, 115 min (times of Table I r54)): 98.89%
- Average Relative Light Units (LucPpe2m146; LucPpe2m146, 0.1%, 175 min (head r54)): 20760.93 rlu
- Percent of Luminescence Remaining (LucPpe2m146; LucPpe2m146, 0.1%, 175 min (times of Table I r54)): 103.12%
- Average Relative Light Units (LucPpe2m146; LucPpe2m146, 0.1%, 238 min (head r54)): 19758.4 rlu
- Percent of Luminescence Remaining (LucPpe2m146; LucPpe2m146, 0.1%, 238 min (times of Table I r54)): 98.14%
- Average Relative Light Units (LucPpe2m146; LucPpe2m146, 0.1%, 286 min (head r54)): 19659.10 rlu
- Percent of Luminescence Remaining (LucPpe2m146; LucPpe2m146, 0.1%, 286 min (times of Table I r54)): 97.65%
- Average Relative Light Units (LucPpe2m146; LucPpe2m146, 0.5%, 15 min (head r41)): 5.496 rlu
- Percent of Luminescence Remaining (LucPpe2m146; LucPpe2m146, 0.5%, 15 min (times of Table I r41)): 100.00%
- Average Relative Light Units (LucPpe2m146; LucPpe2m146, 0.5%, 72 min (head r41)): 3.141 rlu
- Percent of Luminescence Remaining (LucPpe2m146; LucPpe2m146, 0.5%, 72 min (times of Table I r41)): 57.16%
- Average Relative Light Units (LucPpe2m146; LucPpe2m146, 0.5%, 124 min (head r41)): 2.769 rlu
- Percent of Luminescence Remaining (LucPpe2m146; LucPpe2m146, 0.5%, 124 min (times of Table I r41)): 50.39%
- Average Relative Light Units (LucPpe2m146; LucPpe2m146, 0.5%, 190 min (head r41)): 2.563 rlu
- Percent of Luminescence Remaining (LucPpe2m146; LucPpe2m146, 0.5%, 190 min (times of Table I r41)): 46.64%
- Average Relative Light Units (LucPpe2m146; LucPpe2m146, 0.5%, 251 min (head r41)): 2.766 rlu
- Percent of Luminescence Remaining (LucPpe2m146; LucPpe2m146, 0.5%, 251 min (times of Table I r41)): 50.32%
- effect on native firefly luciferase [1]: inactivated
- loss of ATP (inhibition of ATPase endogenous to the sample) ([2]; 22° C.): no loss of ATP
- loss of ATP (inhibition of ATPase endogenous to the sample) ([2]; 37° C.): minimal loss
